From patent EP4043434A1, “NOVEL SULFONYLIMINES” (Karl-Franzens-Universität Graz, priority 2021, dated 2022)

Assays:
L-6 cells = experiment: cells; type: cell-based, rat; settings: for IC50: Rattus norvegicus, L6, cytotoxicity against L-6 cells, 70 h + 2 h incubation with Alamar Blue
Method: Assays were performed in 96-well microtiter plates, each well containing 100 µl of RPMI 1640 medium supplemented with 1% L-glutamine (200 mM) and 10% fetal bovine serum, and 4000 L-6 cell, a primary cell line derived from rat skeletal myoblasts (Page, C.; et al. J. Oncol. 1993, 3, 473-476; Ahmed, S. A.; Gogal, R. M.; et al. J. Immunol. Methods 1994, 170 211-224).
Serial drug dilutions of eleven 3-fold dilution steps covering a range from 100 to 0.002 µg/ml were prepared. After 70 hours of incubation the plates were inspected under an inverted microscope to assure growth of the controls and sterile conditions. 10 µl of Alamar Blue was then added to each well and the plates incubated for another 2 hours. Then the plates were read with a Spectramax Gemini XS microplate fluorometer (Molecular Devices Cooperation, USA) using an excitation wave length of 536 nm and an emission wave length of 588 nm. The IC50 values were calculated by linear regression (Huber, W.; et al. Acta Trop. 1993, 55, 257-261.) from the sigmoidal dose inhibition curves using SoftmaxPro software (Molecular Devices Cooperation, USA). Podophyllotoxin (Sigma P4405) was used as control. Table 1: Results for cytotoxicity against L-6 cells expressed as IC50 values (µM)

[1] = test system: Arthrobacter aurescens DSM20116; experiment: Drop plate method assay, antimicrobial activity; type: cell-based; design: key: high activity (++); Medium activity (+); no activity(-); settings: 10 µl of 1 mg/ml in DMSO dropped on seeded agar plate, read after approximately 10-16 h
Method: (§1) A drop plate method assay (Alajlani, M.; et al. Chromatographia 2016, 79, 1527-1532.) with modification was performed to detect the antimicrobial and antifungal activity against the Gram positive bacteria Arthrobacter aurescens and the yeast strain Candida krusei. All compounds were dissolved in DMSO to a concentration of 1 mg/ml. Using sterile micropipette 10 µl of each compound was directly but gently dropped over seeded agar plate with test organism. The liquid was allowed to diffuse before the plate was inverted and incubated. The growth conditions for every strain was considered. The results were noted when a lawn of the indicator organism appeared on the plate (approximately 10-16 h). The magnitude of activity was noted as high activity (++), Medium activity (+),and no activity(-). Table 2: Antimicrobial and antifungal activities of compounds were detected over the test organisms.

Candida krusei CCMM L10 = experiment: Drop plate method assay, antifungal activity; type: cell-based; design: key: high activity (++); Medium activity (+); no activity(-); settings: 10 µl of 1 mg/ml in DMSO dropped on seeded agar plate, read after approximately 10-16 h
Method: as §1

SMILES | IC50 (L-6 cells) [µM] | magnitude of activity, Arthrobacter aurescens DSM20116 [1] | magnitude of activity, Candida krusei CCMM L10 (Candida krusei CCMM L10) | IC50 for cytotoxicity relative to the investigated concentration (L-6 cells) [times]
CC(C)=C/C(=C\C=NS(=O)(=O)c1ccc([N+](=O)[O-])cc1)N1CCCCC1 [Example 2, (2E)-N-{5-Methyl-1-[(4-nitrophenyl)sulfonylimino]hexa-2,4-dien-3-yl}piperidin-1-ium chloride] | 206 | – | – | –
CC(C)=C/C(=C\C=NS(=O)(=O)c1ccc([N+](=O)[O-])cc1)N1CCCC1.Cl [Example 3, (2E)-N-{5-Methyl-1-[(4-nitrophenyl)sulfonylimino]hexa-2,4-dien-3-yl}pyrrolidine-1-ium chloride] | 250 | ++ | + | 100
CC(C)=C/C(=C\C=NS(=O)(=O)c1ccc(Cl)cc1)N1CCCCC1 [Example 5, (2E)-4-Chloro-N-[5-methyl-3-(piperidin-1-yl)hexa-2,4-dien-1-ylidene]benzenesulfonamide] | – | ++ | + | –
CC(C)=C/C(=C\C=NS(=O)(=O)c1ccccc1)N1CCCC1 [Example 6, 2(E)-N-[5-Methyl-3-(pyrrolidin-1-yl)hexa-2,4-dien-1-ylidene]benzenesulfonamide] | – | ++ | + | –
CC(C)=C/C(=C\C=NS(=O)(=O)c1ccccc1)N(C)C [Example 7, (2E)-N-(3-Dimethylamino-5-methylhexa-2,4-dien-1-ylidene)benzenesulfonamide] | – | ++ | + | –
CC(C)=C/C(=C\C=NS(=O)(=O)c1ccc(C)cc1)N1CCCC1 [Example 8, (2E)-4-Methyl-N-[5-methyl-3-(pyrrolidin-1-yl)hexa-2,4-dien-1-ylidene]benzenesulfonamide] | – | ++ | + | –
CC(C)=C/C(=C\C=NS(C)(=O)=O)N1CCCCC1 [Example 10, (2E)-N-[5-Methyl-3-(piperidin-1-yl)hexa-2,4-dien-1-ylidene]methanesulfonamide] | – | ++ | + | –
